Data published in patent publication US12146134B2, “Microfluidic devices and methods of use in the formation and control of nanoreactors” (Bio-Rad Laboratories, Inc., priority 2006, dated 2024).
{Fluorescein} = fluorescein label; {Biotin} = biotin label

B1: 101: 5′ Biotin-labeled oligonucleotide, SEQ ID NO: 1 (nucleic acid)
DNA: ATCCGCCCCAGCAGCTGCCAGGCACAGCCCCTAAACTCCTGATTTATGCTGCATCCATTTTGC
modifications: DNA, 5' {Biotin}, backbone not given here

Legend:
Oligonucleotide 102 = experiment: measurement of DNA hybridization using fluorescence polarization (FP) on the microfluidic device; format: binding; settings: addition of oligonucleotide to the fluorescein-labeled 102
Source text: (A) FP can be used to measure the binding of 2 DNA molecules on the microfluidic device. (B) Oligonucleotide 102 is complement to both 101 and 103. […] Oligonucleotides; #101:[NT] ID NO: 1); #102: [NT] ID NO: 2); #103: [NT] NO: 3).

Steptaviden = Steptaviden (Streptomyces avidinii, UniProt P22629); experiment: fluorescence polarization measurements in droplets inside the microfluidic device (biotin/streptavidin binding); settings: droplets 65 to 75 um, 10 mM Borate pH 9, data normalized so P(Fluorescein)=0.0
Source text: In addition to molecular beacons and Taqman, the devices of the present invention can be used to cany out fluorescence polarization as described herein. Most SNP assays can be adapted for both mini-sequencing and gene expression analysis. A series of fluorescence polarization measurements have been made inside a microfluidic device according to the present invention while looking at droplets containing Fluorescein, Fluorescein bound to biotin, and Fluorescein bound to biotin+Steptaviden. The fluorescence signal was split into two orthogonal polarizations: one parallel to the laser excitation polarization, and one perpendicular to the polarization. These signal were collected and analyzed to determine the change in polarization of the fluorescence for each of these binding conditions.
The Polarization is calculated from:
[formula] Where V=fluorescence signal polarized parallel to laser excitation polarization, and H=fluorescence signal polarized perpendicular.
The fluorescence station was modified to include cleanup polarizer for the laser and a polarizing beamsplitter with cleanup polarizers for collection. The two resulting fluorescence channels collect light with orthogonal polarizations (“Vertical” is parallel to the laser polarization, “Horizontal” is perpendicular to the laser polarization). […]

Chain of Steptaviden (P22629 25-183): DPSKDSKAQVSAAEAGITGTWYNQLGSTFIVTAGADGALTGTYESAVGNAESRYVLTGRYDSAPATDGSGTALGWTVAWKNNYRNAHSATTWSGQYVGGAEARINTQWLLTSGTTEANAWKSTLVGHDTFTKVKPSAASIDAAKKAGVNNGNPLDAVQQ

Row | Molecule | shift of mP value of labeled 102, indicative of binding (Oligonucleotide 102) | Polarization (mean of histogram grouping) (Steptaviden) [mP]
1 | 103: 5′ Fluorescein-labeled oligonucleotide, SEQ ID NO: 3 (DNA CTAAACTCCTGATTTATGCTGCATCCATTTTGC; DNA, 5' {Fluorescein}, backbone not given here) [compound 103] | shifts the mP value | –
2 | Biotinylated Fluorescein [Biotinalated Fluorescein] | – | 18.4
3 | B1 | shifts the mP value | –
